Source: patent US11492325B2, “Compounds as inhibitors of sodium channels” (Human BioMolecular Research Institute, priority 2016, dated 2022)
Where “and” joins values, the source holds several entries; their conditions need not be identical. Equal entries are not always repeated. Where two headings read alike, the source gives them in different places. Values belong to the molecule of their own block, whether it stands above or below them.

Key:
[1] = Metabolic stability in mouse liver microsomes; format: in vitro ADME; conditions: mouse, liver microsomes, pH 7.4; 50 μM, NADPH-generating system, 37° C.; read-out: Liver Microsomes t1/2 Mouse
Procedure: (§1) A typical incubation contained rat, mouse, dog or human liver microsomes (0.4-0.5 mg of protein), 100 mM potassium phosphate buffer (pH7.4), 50 μM test compound, an NADPH-generating system consisting of 0.5 mM NADP^+, 0.5 mM glucose-6-phosphate, 1 IU/mL glucose-6-phosphate dehydrogenase, 1 mg/mL diethylenetriaminepentaaceticacid (DETAPAC), and 3 mM MgCl2 in a final incubation volume of 0.25 mL. […] After centrifugation at 3000 rpm for 5 min, the organic fraction was collected, the solvent was removed with a stream of argon and the residue was reconstituted in 125 μL of MeOH and 125 μL H2O, mixed thoroughly, centrifuged at 13,000 rpm for 5 min and analyzed by high performance liquid chromatography. Samples were run on a Hitachi D-7000 HPLC system using a L-7100 analytical pump, L-7400 UV-Visible variable wavelength detector, and L-7600 automatic sample injector. […] Disappearance of the analyte was monitored over time. A plot of the area under the curve for the normalized analyte versus time afforded the half-life values and kapp.

[2] = Metabolic stability in rat liver microsomes; format: in vitro ADME; conditions: rat, liver microsomes, pH 7.4; 50 μM, NADPH-generating system, 37° C.; read-out: Liver Microsomes t1/2 Rat
Procedure: as §1

[3] = Metabolic stability in human liver microsomes; format: in vitro ADME; conditions: for half-life at 50 μM: human, liver microsomes
Procedure: as §1

[4] = Metabolism in human hepatic S9; conditions: for Human S-9, nmol metab./incub.: 0.4 mg protein/incubation, 30 mins, 37° C.
Procedure: as §1
(§2) Microsomes contain CYPs and FMO metabolic enzymes. S9 contains soluble enzymes (i.e., aldehyde oxidase, MAO, etc.).

[5] = Metabolism in mouse hepatic S9; conditions: 0.4 mg protein/incubation; 30 mins, 37° C.
Procedure: as §1, §2

CYP3A4 = CYP3A4 (Homo sapiens, UniProt P08684); assay: Metabolism with highly purified CYP3A4 (HPLC); conditions: 3 pmol enzyme/incubation; 30 mins, 37° C.
Sequence of CYP3A4 (P08684 whole entry): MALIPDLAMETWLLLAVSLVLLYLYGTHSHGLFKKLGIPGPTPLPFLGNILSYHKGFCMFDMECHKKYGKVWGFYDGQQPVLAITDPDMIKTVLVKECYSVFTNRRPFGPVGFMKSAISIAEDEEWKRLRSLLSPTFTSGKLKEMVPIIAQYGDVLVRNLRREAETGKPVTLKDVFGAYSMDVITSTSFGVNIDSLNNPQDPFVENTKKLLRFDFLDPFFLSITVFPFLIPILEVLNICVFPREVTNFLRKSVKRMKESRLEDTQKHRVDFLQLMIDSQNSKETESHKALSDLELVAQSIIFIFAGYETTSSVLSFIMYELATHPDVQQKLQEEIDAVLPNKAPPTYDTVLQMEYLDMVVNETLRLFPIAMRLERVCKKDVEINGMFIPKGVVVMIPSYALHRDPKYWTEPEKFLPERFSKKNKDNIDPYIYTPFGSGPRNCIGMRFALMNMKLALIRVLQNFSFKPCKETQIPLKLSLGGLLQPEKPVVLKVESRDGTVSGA

Human FMO1 = biological target: T1, Human FMO1 (Homo sapiens, UniProt Q01740); assay: Metabolism with human FMO1 (nmol metabolism/incubation); conditions: 15 μg enzyme/incubation; 30 mins, 37° C.
T1 sequence (Q01740 1-532): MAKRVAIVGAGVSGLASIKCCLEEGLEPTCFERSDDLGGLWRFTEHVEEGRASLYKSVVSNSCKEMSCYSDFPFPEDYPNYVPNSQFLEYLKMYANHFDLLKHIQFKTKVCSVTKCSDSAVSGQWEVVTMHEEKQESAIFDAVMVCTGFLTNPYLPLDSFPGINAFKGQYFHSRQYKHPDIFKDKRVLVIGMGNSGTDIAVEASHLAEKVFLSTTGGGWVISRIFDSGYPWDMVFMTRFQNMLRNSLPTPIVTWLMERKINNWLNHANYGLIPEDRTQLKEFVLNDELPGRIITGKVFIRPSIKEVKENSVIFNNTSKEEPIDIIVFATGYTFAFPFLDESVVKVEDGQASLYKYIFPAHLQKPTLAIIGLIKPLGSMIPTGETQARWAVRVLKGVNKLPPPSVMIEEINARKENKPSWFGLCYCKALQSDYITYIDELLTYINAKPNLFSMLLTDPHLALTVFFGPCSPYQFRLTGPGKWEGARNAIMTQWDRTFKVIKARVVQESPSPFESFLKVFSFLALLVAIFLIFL

[6] = biological target: T2, hERG potassium channel (IKr) (Homo sapiens, UniProt Q12809)
T2 sequence (Q12809 whole entry): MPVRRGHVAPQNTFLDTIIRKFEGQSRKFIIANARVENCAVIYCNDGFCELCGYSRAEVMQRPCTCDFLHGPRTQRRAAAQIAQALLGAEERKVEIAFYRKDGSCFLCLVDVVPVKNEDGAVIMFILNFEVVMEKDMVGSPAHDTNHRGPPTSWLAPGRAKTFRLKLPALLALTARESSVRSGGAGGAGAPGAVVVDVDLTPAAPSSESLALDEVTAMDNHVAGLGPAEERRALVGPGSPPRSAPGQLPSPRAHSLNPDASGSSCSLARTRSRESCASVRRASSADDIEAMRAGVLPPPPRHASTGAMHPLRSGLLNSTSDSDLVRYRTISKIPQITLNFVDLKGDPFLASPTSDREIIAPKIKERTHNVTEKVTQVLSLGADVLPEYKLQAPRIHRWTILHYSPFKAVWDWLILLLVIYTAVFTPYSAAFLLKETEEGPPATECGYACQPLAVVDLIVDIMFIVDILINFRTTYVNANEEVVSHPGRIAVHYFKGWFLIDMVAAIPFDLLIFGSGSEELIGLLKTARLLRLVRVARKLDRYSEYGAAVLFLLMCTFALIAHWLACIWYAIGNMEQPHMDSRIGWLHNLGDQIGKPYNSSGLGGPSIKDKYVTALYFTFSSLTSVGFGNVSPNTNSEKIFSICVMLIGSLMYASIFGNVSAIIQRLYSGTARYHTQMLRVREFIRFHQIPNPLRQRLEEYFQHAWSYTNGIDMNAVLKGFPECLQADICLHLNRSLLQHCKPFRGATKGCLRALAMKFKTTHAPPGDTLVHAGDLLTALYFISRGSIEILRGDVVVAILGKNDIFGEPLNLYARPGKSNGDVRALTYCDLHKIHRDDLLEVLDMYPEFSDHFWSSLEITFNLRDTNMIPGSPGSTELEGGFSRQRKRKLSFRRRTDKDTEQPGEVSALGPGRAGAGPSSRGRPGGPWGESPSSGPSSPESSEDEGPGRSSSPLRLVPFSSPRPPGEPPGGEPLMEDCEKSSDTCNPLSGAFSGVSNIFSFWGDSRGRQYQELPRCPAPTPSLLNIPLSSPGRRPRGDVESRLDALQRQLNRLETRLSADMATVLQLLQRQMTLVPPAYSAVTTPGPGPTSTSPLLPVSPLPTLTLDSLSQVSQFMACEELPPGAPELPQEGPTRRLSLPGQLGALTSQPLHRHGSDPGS

[7] = biological target: Nav1.5 sodium channel, peak current (INaP) (Homo sapiens, UniProt Q14524, form not given); assay: in vitro
Procedure: (§3) This provided data to investigate the physiology and action of target compounds on individual ion channels. The assay used standardized protocols for culturing and conducting conventional whole cell recording that have been previously developed for both current and voltage-clamp to characterize action potentials using transfected cells. Briefly, the Nav1.5 sodium channel was transfected into HEK293 cells. […] Briefly, cells were plated on 0.1% gelatin-coated 35-mm plastic Petri dishes. […] Data was reported as IC50 values±STD (Table 1).

[8] = biological target: Nav1.5 sodium channel transfected into HEK293 cells (Homo sapiens, UniProt Q14524); assay: Patch clamp electrophysiology, peak (INaP) and late (INaL) sodium current in transfected cells
Procedure: as §3

Male BALBc mice = test system: Male BALBc mice
Excerpt: Male BALBc mice (20-22 g) were used throughout these studies. The animals were maintained in a temperature-controlled room with 12-hr periods of light and darkness and had continuous access to water and animal food. […] Groups contained 2-4 animals.

[9] = test system: cardiomyocytes derived from hiPSCs from a LQTS3 patient
[10] = test system: normal human induced pluripotent stem cell (hiPSC) cardiomyocyte; conditions: for WT-Fold Prolongation: APD
[11] = biological target: T2, hERG potassium channel (IKr); assay: Automated patch clamp, hERG (IKr) expressed in CHO cells; conditions: for IC50: hERG (IKr) IC50, CHO cells
[12] = Solubility (water; 10:30:60% DMSO:PEG400:water vehicle); format: physicochemical
[13] = Chemical stability in PBS buffer at pH 7.4 or 3.0, 37° C.; format: physicochemical; conditions: pH 7.4, 100 μM in PBS, 1% Ethanol, read-out: Half-Life @ pH 7.4 and 37° C.
Procedure: A typical incubation contained 100 μM of the test compound prepared in PBS buffer (pH 7.4 or 3.0, 50 mM) with 1% Ethanol. The test compounds were incubated at 37° C. An aliquot from incubations was taken at various times and injected onto an RP-HPLC system as described above. Disappearance of the analyte was monitored over time.

CYP2D6 = CYP2D6 (Homo sapiens, UniProt P10635); assay: Metabolism with highly purified CYP2D6 (HPLC); conditions: 50 min incubation
Sequence of CYP2D6 (P10635 whole entry): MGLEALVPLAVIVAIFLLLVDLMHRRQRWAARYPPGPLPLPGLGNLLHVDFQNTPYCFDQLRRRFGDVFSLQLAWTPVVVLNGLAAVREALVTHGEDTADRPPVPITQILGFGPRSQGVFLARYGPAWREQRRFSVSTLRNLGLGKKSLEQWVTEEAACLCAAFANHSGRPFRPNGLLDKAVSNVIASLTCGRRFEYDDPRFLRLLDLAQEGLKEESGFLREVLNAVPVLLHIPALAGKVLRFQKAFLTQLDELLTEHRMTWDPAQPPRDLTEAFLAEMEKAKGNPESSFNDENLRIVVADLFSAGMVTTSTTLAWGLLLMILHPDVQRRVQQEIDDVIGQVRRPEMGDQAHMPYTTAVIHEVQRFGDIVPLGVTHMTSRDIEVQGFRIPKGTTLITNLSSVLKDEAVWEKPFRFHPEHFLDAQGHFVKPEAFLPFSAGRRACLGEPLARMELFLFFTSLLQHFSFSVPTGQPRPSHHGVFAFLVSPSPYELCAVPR
Procedure: as §1
Accordingly, we examined the metabolism of leads with highly purified CYPs with an HPLC method (Example 8).

[14] = biological target: Na+ channel currents in LQT3 patient-derived cardiomyocytes (Homo sapiens, UniProt Q14524); assay: Whole cell patch clamp of Na+ currents (INaP, INaL) in hIPSC LQT3 patient-derived cardiomyocytes; format: cell-based; conditions: for IC50: whole-cell voltage clamp, steps -80 mV to +40 mV, table title says transfected CHO cells
Procedure: Patch clamp recordings from hIPSC LQT3 patient-derived cardiomyocytes for Na+ channel currents were recorded in response to computed voltage waveforms that simulated adult ventricular action potentials.
The basis for LQT3 is a mutation in SCN5a that encodes the voltage-gated Na channel responsible for cardiac action potential. The Na current (INa) has peak and late components: the peak component initiates the action potential but as voltage rises, the channel normally inactivates. […] The LQT3 mutation impairs inactivation. The late component is then enlarged, resulting in action potential prolongation. […] Whole cell patch clamp electrophysiology experiments in LQTS3 cardiomyocytes helped determine the functional activity of drug candidates for inhibition of the late sodium current in the cells. Thus, we tested compounds for Peak (INaP) and Late (INaL) components. They were recorded in a “whole-cell” voltage-clamp mode configuration in response to voltage stimulation steps from −80 mV to +40 mV and their IC50 values determined (Table 1).

[15] = test system: cardiomyocytes derived from hiPSCs from a LQTS3 patient; assay: cells; conditions: Homo sapiens, Cardiomyocyte
[16] = 'No AP' wraps to 'No AP shortening'

- half-life at 50 μM [1]: 3.47 h
- half-life at 50 μM [2]: 7.92 h
- half-life at 50 μM ([3]; pH 7.4, 50 μM, NADPH-generating system, 37° C., read-out: Liver Microsomes t1/2 Human): 2.35 h
Structure (SMILES): Cc1ccccc1OCC(N)c1ccccc1 (centres unmarked) [drawing 303]

Structure (SMILES): Cc1cccc(C)c1OCC(N)c1ccccc1 (racemic) [Phenyl Mexiletine]
- Human S-9, nmol metab./incub. [4]: 1.2 nmol metab./incub.
- Mouse S-9, nmol metab./incub. [5]: 2.5 nmol metab./incub.
- Human CYP3A4, nmol metab./incub. (CYP3A4): 2.3 nmol metab./incub.
- Human FMO1, nmol metab./incub. (Human FMO1): 0.33 nmol metab./incub.

- Human S-9, nmol metab./incub. [4]: 1.4 nmol metab./incub.
- Mouse S-9, nmol metab./incub. [5]: 1.4 nmol metab./incub.
- Human CYP3A4, nmol metab./incub. (CYP3A4): 1.5 nmol metab./incub.
- Human FMO1, nmol metab./incub. (Human FMO1): 0.06 nmol metab./incub.
Structure (SMILES): Cl.[2H]C(N)(COc1c(C)cccc1C)c1ccccc1 (centres unmarked) [Compound 136]

Structure (SMILES): COCCNC(COc1cc(C)cc(C)c1)c1ccccc1.Cl (centres unmarked) [Compound 69]
- DNaP/Kr [6]: 7.5
- IC50 ([7]; Peak Na+ (INaP) IC50): 38.3 µM
- DNap/NaL ([8]; ratio peak IC50/late IC50): 45.3
- DNap/NaL ([8]; ratio peak/late IC50, Example 2): 50.5
- behavioral/toxic effects at 200 mg/kg (Male BALBc mice; mice, i.p.): slight lethargy
- tolerability (Male BALBc mice; mice, i.p., 30-100 mg/kg, 24 hr): well-tolerated
- LQT-IC50 (uM)-Shortening ([9]; APD shortening, LQT3 cardiomyocytes): None
- LQT-Fold Shortening ([9]; LQT3 cardiomyocytes): None
- LQT-Shortening Dose ([9]; LQT3 cardiomyocytes): None
- LQT-Cessation Dose ([9]; human, 5 min): 200 µM
- WT-Fold Prolongation ([10]; normal hiPSC cardiomyocytes): None
- Cessation of Beating ([10]; human, 5 min): 200 µM
- WT-Prolongation Dose ([10]; normal hiPSC cardiomyocytes): None
- IC50 [11]: 5.1 µM
- IC50 ([11]; Example 2): 5.1 µM
- solubility (in words) [12]: good solubility

Structure (SMILES): Cc1cc(C)cc(OCC(N)c2ccccc2)c1.Cl (racemic) [Compound 70, (rac)-(+)-2-(3,5-dimethylphenoxy)-1-phenylethanamine hydrochloride]
- half-life at 100 μM [13]: > 720 h
- metabolism in human liver S-9 judged by HPLC [4]: detectably metabolized
- IC50 [7]: 18.9 µM
- IC50 ([7]; Peak Na+ (INaP) IC50): 20.1 µM
- DNap/NaL ([8]; ratio peak IC50/late IC50): 103
- DNap/NaL ([8]; ratio peak/late IC50, Example 2, hydrochloride): 104 and 100.5
- behavioral/toxic effects at 200 mg/kg (Male BALBc mice; mouse, in vivo, ip): slight lethargy
- nmols metabolized, CYP2D6 (CYP2D6): 4.6 nmols
- nmols/μg CYP, CYP2D6 (CYP2D6): .345 nmols/μg CYP
- pmols product/μg CYP/min, CYP2D6 (CYP2D6): 6.92 pmols product/μg CYP/min
- LQT-Fold Shortening [9, 16]: 1.279
- LQT-Shortening Dose [9, 16]: 7.4 µM
- LQT-Cessation Dose ([9]; LQT3 cardiomyocytes): 66 µM
- LQT-Fold Shortening ([9]; LQT3 cardiomyocytes): 1.279
- LQT-Cess. Dose ([9]; deuterated vs non-deuterated): 66 µM
- Ratio Mex INaL/Lead INaL ([14]; potency relative to Mexiletine): 94.4
- IC50 ([14]; read-out: IC50 for INaL): 0.54 µM
- IC50 ([14]; read-out: IC50 for INaP): 171 µM
- metabolism in human liver microsomes judged by HPLC [3]: metabolized
- half-life at 50 μM ([3]; pH 7.4, liver microsomes + NADPH, species (human), read-out: metabolic stability in liver microsomes T1/2): > 1 h
- WT-Prolong. Dose ([10]; 'No AP' wraps to 'No AP Prolong.'): No AP
- WT-Fold Prolongation ([10]; normal hiPSC cardiomyocytes): None
- WT-Cess. Dose ([10]; deuterated vs non-deuterated): 66 µM
- WT-EC50 (μM)-Prolong. ([10]; deuterated vs non-deuterated, 'No AP' wraps to 'No AP prolongation'): No AP
- Cessation of Beating ([10]; normal hiPSC cardiomyocytes): 66 µM
- WT-Prolongation Dose ([10]; normal hiPSC cardiomyocytes): None
- IC50 [11]: 6.2 µM
- IC50 ([11]; Example 2): 6 µM and 6.2 µM
- DKr/NaL ([11]; ratio hERG IC50/late Na IC50): 34.0
- DNaP/Kr ([11]; ratio peak Na IC50/hERG IC50): 3.0
- DKr/NaL ([11]; ratio, Example 2): 34.0
- DNaP/Kr ([11]; ratio, Example 2): 3.0
- solubility (in words) [12]: good solubility
- EC50 ([15]; read-out: LQT-EC50 (μM)-Shortening): < 0.8 µM
- IC50 ([15]; read-out: LQT-IC50 (uM)-Shortening): 0.0013 µM
